Laboratory results reported in article PMC6273342, “Cytotoxic Alkaloids from the Stem of Xylopia laevigata” (Molecules, 2016).
Read-outs that look alike come from different tables or passages of the source.

Assays:
[1] = tested on: K562 (human chronic myelocytic leukemia); test: Alamar Blue cytotoxicity assay, K562; type: cell-based; settings: 72 h incubation
Source text: (§1) Camargo, São Paulo, Brazil.

[2] = tested on: HepG2 (human hepatocellular carcinoma); test: Alamar Blue cytotoxicity assay, HepG2; type: cell-based; settings: 72 h incubation
Source text: as §1

[3] = tested on: HL-60 (human promyelocytic leukemia); test: Alamar Blue cytotoxicity assay, HL-60; type: cell-based; settings: for IC50: Homo sapiens, HL-60, Alamar Blue, 72 h incubation, read-out: IC50 HL60
Procedure: (§3) B16-F10, HepG2, K562 and HL-60 tumor cell lines were kindly donated by Hospital A.C. […] Cells were maintained in RPMI 1640 medium (Gibco-BRL, Gaithersburg, MD, USA) with 10% fetal bovine serum (Cultilab, Campinas, Brazil), 2 mM L-glutamine (Vetec Química Fina, Duque de Caxias, Brazil) and 50 μg/mL gentamycin (Novafarma, Anápolis, Brazil). Adherent cells were collected by treatment with 0.25% trypsin-EDTA solution (Gibco-BRL). All cell lines were cultured in flasks at 37 °C in 5% CO2 and sub-cultured every 3–4 days to maintain exponential growth. All cell lines were tested for mycoplasma using a Mycoplasma Stain Kit (Sigma-Aldrich, St. Louis, MO, USA) to confirm that the cells were free from contamination.
(§4) Cell viability was quantified using the Alamar Blue assay, according to Ahmed et al. [23]. Cells were placed in 96-well plates for all experiments (0.7 × 10^5 cells/mL for adherent cells or 0.3 × 10^6 cells/mL for suspended cells in 100 μL of medium). After 24 h, the alkaloids (in a range of eight different concentrations varying from 0.19 to 25 μg/mL) were dissolved in dimethyl sulfoxide (DMSO, Sigma-Aldrich Co.), and the solution was added to each well and incubated for 72 h. […] Negative controls received the vehicle that was used for diluting the alkaloids (0.5% DMSO). Four (for cell lines) or 24 h (for PBMCs) before the end of incubation, 20 μL of a stock solution (0.312 mg/mL) of the Alamar Blue (resazurin, Sigma-Aldrich Co.) was added to each well. The absorbance at 570 nm and 600 nm was measured using a SpectraMax 190 Microplate Reader (Molecular Devices, Sunnyvale, CA, USA), and the drug effect was quantified as the percentage of control absorbance.

[4] = tested on: tumor cell lines B16-F10, HepG2, K562 and HL-60; test: Alamar Blue cytotoxicity assay, summary over the tumor cell lines tested; settings: 72 h, read-out: IC50 in at least one of the tumor cell lines tested
Procedure: as §3, §4

B16-F10 (mouse melanoma) = test: Alamar Blue cytotoxicity assay, B16-F10; type: cell-based; settings: 72 h incubation
Source text: as §1

[5] = tested on: peripheral blood mononuclear cells (PBMCs); test: Alamar Blue cytotoxicity assay, non-tumor PBMCs; type: cell-based; settings: Homo sapiens, PBMC, 72 h incubation, ConA-stimulated PBMCs
Procedure: Heparinized blood was collected from 20- to 35-year-old, healthy non-smokers who had not taken any drugs for at least 15 days prior to sampling, and the peripheral blood mononuclear cells (PBMCs) were isolated using a Ficoll density gradient in a Ficoll-Paque Plus (GE Healthcare Bio-Sciences AB, Uppsala, Sweden). PBMCs were washed and resuspended at a concentration of 0.3 × 10^6 cells/mL in RPMI 1640 medium with 20% fetal bovine serum, 2 mM L-glutamine and 50 μg/mL gentamycin at 37 °C with 5% CO2. Concanavalin A (ConA, Sigma-Aldrich Co.) was used as a mitogen to trigger cell division in T-lymphocytes. ConA (10 μg/mL) was added at the beginning of culture, and the cells were treated with the test compounds after 24 h. Cell viability was examined using a trypan blue exclusion assay for all experiments. Over 90% of the cells were viable at the beginning of the culture. The Research Ethics Committee of the Oswaldo Cruz Foundation (Salvador, Bahia, Brazil) approved the experimental protocol (#031019/2013). All participants signed a written informed consent to participate in the study.

[6] = Alamar Blue cytotoxicity assay, summary over the tumor cell lines tested; settings: mouse (B16-F10); human (HepG2, K562, HL-60)
Procedure: as §3, §4

HepG2 cells [7] = test: Annexin assay (phosphatidylserine externalization, flow cytometry), HepG2; type: cell-based, human; settings: HepG2, 24 h
Procedure: (§2) The following set of experiments was performed to investigate the mechanisms involved in the cytotoxic action of the alkaloids lanuginosine and (+)-xylopine. In all experiments, 2 mL of a HepG2 cell solution (0.7 × 10^5 cells/mL) was placed in 24-well plates and incubated overnight to allow the cells to adhere to the plate surface. The cells were then treated for 24 h with the alkaloids lanuginosine (10 and 20 μg/mL) and (+)-xylopine (5 and 10 μg/mL). The negative control was treated with the vehicle (0.2% DMSO) used for diluting the alkaloids. […] Cell viability was assessed for all experiments using a Trypan Blue exclusion assay.
Phosphatidylserine externalization was analyzed by flow cytometry. A FITC annexin V apoptosis detection kit (BD Biosciences, San Jose, CA, USA) was used to determine cell viability (viable, early apoptotic, late apoptotic and necrotic cells). Cells were washed twice with saline and then resuspended in 100 μL of binding buffer with 5 μL of propidium iodide and 5 μL of FITC annexin V. The cells were gently mixed on a vortexer and incubated for 15 min at room temperature (20–25 °C) in the dark. Afterwards, 400 μL of binding buffer was added to each tube and the cells were analyzed by flow cytometry on a BD LSRFortessa cytometer using BD FACSDiva Software (BD Biosciences) and Flowjo Software 10 (Flowjo LCC, Ashland, OR, USA). Ten thousand events were evaluated per experiment and cellular debris was omitted from the analysis.

HepG2 cells [8] = test: Morphological analysis with May-Grünwald-Giemsa staining, HepG2; type: cell-based, human; settings: HepG2, 24 h; lanuginosine 10 and 20 μg/mL, (+)-xylopine 5 and 10 μg/mL
Procedure: as §2
To evaluate alterations in morphology, cells were cultured under a coverslip, fixed with methanol for 30 s and stained with May-Grünwald-Giemsa stain. Morphological changes were examined by light microscopy (Olympus BX41, Tokyo, Japan) using Image-Pro software (Media Cybernetics, Rockville, MD, USA).

HepG2 cells [9] = test: Trypan Blue dye exclusion, HepG2; type: cell-based, human; settings: HepG2, 24 h, lanuginosine 10 and 20 μg/mL, (+)-xylopine 5 and 10 μg/mL
Procedure: as §2

HepG2 cells [10] = test: Acridine Orange/ethidium bromide staining, fluorescence microscopy, HepG2; type: cell-based, human; settings: HepG2, 24 h, p < 0.05
Procedure: as §2
Cells were pelleted and resuspended in saline (25 μL). Then, 1 μL of aqueous solution of AO/EB (100 μg/mL, Sigma-Aldrich Co.) was added, and the cell viability changes were observed under a fluorescence microscope (Olympus BX41). In this assay, AO permeates all cells and makes the nuclei appear green. EB is only taken up by cells when the cytoplasmic membrane integrity is lost and stains the nucleus red. EB also dominates over AO. Thus, live cells have a normal green nucleus; early apoptotic cells have a bright green nucleus with condensed or fragmented chromatin; late apoptotic cells display condensed and fragmented orange chromatin; cells that have died from direct necrosis have a structurally normal orange nucleus. Three hundred cells were counted per sample and classified as viable, apoptotic or necrotic.

HepG2 cells [11] = test: Internucleosomal DNA fragmentation and cell cycle distribution (flow cytometry, propidium iodide), HepG2; type: cell-based, human; settings: HepG2, 24 h, 1 µg/mL
Procedure: as §2
Cells were harvested in a lysis solution containing 0.1% triton X-100 (Sigma Chemical Co., St. Louis, MO, USA), 2 µg/mL propidium iodide (Sigma Chemical Co.), 0.1% sodium citrate and 100 µg/mL RNAse (Sigma Chemical Co.). Cell fluorescence was determined by flow cytometry on a BD LSRFortessa cytometer using BD FACSDiva Software (BD Biosciences) and Flowjo Software 10. Ten thousand events were evaluated per experiment and cellular debris was omitted from the analysis.

Row | SMILES | IC50 [1] [µg/mL] | IC50 ([1]; value in brackets) [µM] | IC50 [2] [µg/mL] | IC50 ([2]; value in brackets) [µM] | IC50 [3] [µg/mL] | IC50 ([3]; value in brackets) [µM] | IC50 [4] [µg/mL] | IC50 (B16-F10 (mouse melanoma)) [µg/mL] | IC50 (B16-F10 (mouse melanoma); value in brackets) [µM] | IC50 [5] [µg/mL] | IC50 at 72 h [6] [µg/mL] | also measured
1 | COc1cc2c(cc1O)CCN1Cc3c(ccc(O)c3OC)CC21 (single isomer, unassigned; (+)) [(+)-Discretamine, (+)-discretamine] | 10.6 | 32.4 | 14 | 42.8 | 10.1 | 30.8 | < 20 | 18.8 | 57.3 | > 25 | – | –
2 | COc1ccc(CC2c3cc(O)c(OC)cc3CCN2C)cc1O (single isomer, unassigned; (+)) [(+)-Reticuline, (+)-reticuline] | > 25 | – | 15.3 | 46.5 | 23.8 | 72.1 | < 20 | > 25 | – | > 25 | – | –
3 | COc1cc(O)c2c(c1)C[C@@H]1NCCc3cc4c(c-2c31)OCO4 [(+)-Calycinine, (+)-calycinine] | > 25 | – | > 25 | – | 18.6 | 59.6 | < 20 | 22.2 | 71 | > 25 | – | –
4 | COc1cc2c(cc1O)CC1c3cc(OC)c(OC)cc3CCN1C2 (single isomer, unassigned; (-)) [(−)-Corytenchine, (−)-corytenchine] | > 25 | – | > 25 | – | > 25 | – | – | > 25 | – | > 25 | > 25 | –
5 | COC1=C[C@]23CCN(C)[C@H](Cc4cc(OC)c(O)cc42)C3=CC1=O [(+)-Flavinantine, (+)-flavinantine] | > 25 | – | > 25 | – | > 25 | – | – | > 25 | – | > 25 | > 25 | –
6 | COc1ccc2c(c1)C(=O)c1nccc3cc4c(c-2c13)OCO4 [Lanuginosine, lanuginosine] | 6.61 | 21.6 | 3.89 | 12.7 | 7.81 | 25.5 | < 4 | 8.46 | 27.6 | 24.5 | – | phosphatidylserine exposure (HepG2 cells [7]; p < 0.05, without affecting the cell membrane integrity): significant increase in phosphatidylserine exposure; selectivity index (SI) ([3]; SI = IC50[PBMC]/IC50[HL-60]): 3.1; cell morphology (HepG2 cells [8]): morphology consistent with apoptosis, including chromatin condensation and fragmentation of the nuclei; number of non-viable cells (HepG2 cells [9]): without increasing the number of non-viable cells; number of viable cells (HepG2 cells [9]; p < 0.05): reduce the number of viable cells; percentage of necrotic cells (AO/EB) (HepG2 cells [10]; at the higher concentration): significantly increased the percentage of necrotic cells; number of apoptotic cells (AO/EB) (HepG2 cells [10]; lanuginosine 10 and 20 μg/mL, (+)-xylopine 5 and 10 μg/mL): increased number of apoptotic cells; IC50 ([5]; value in brackets): 80.1 µM
7 | COc1cccc2c1C(=O)c1c(O)c3c(c(O)c1C2=O)C[C@@](O)(C(=O)CO)C[C@@H]3O[C@H]1C[C@H](N)[C@H](O)[C@H](C)O1 [Doxorubicin, doxorubicin, reference compound] | 0.15 | 0.28 | 0.08 | 0.15 | 0.09 | – | – | 0.08 | 0.15 | 2.47 | – | apoptotic characteristics in the cells (HepG2 cells [7]; doxorubicin 1 μg/mL, positive control): induced apoptotic characteristics; IC50 ([5]; value in brackets): 4.54 µM; Cell Cycle Phases (%) S (HepG2 cells [11]; NC 16.11 ± 1.89): 12.00 ± 1.43 %; Cell Cycle Phases (%) G2/M (HepG2 cells [11]; NC 19.93 ± 6.12): 61.94 ± 5.52 %
8 | COc1cc2c(cc1O)CCN1Cc3cc(OC)c(OC)cc3C[C@@H]21 [(+)-Discretine, (+)-discretine] | 14.8 | 43.4 | 7.89 | 23.1 | 13 | 37.9 | < 20 | 16.1 | 47.2 | > 25 | – | –
9 | COc1cc2c(cc1OC)-c1c(OC)c(OC)c(OC)c3c1C(C2)NCC3 (single isomer, unassigned; (+)) [(+)-Norpurpureine, (+)-norpurpureine] | 16.7 | 44.9 | > 25 | – | 10.1 | 27.2 | < 20 | 21.1 | 56.6 | 17.9 | – | IC50 ([5]; value in brackets): 48.2 µM
10 | CN1CCc2cc3c(c4c2[C@H]1Cc1ccccc1-4)OCO3 [(−)-Roemerine, (−)-roemerine] | > 25 | – | > 25 | – | > 25 | – | – | > 25 | – | > 25 | > 25 | –
11 | COc1cc2c(cc1OC)-c1c(OC)c(OC)cc3ccnc(c13)C2=O [Oxoglaucine, oxoglaucine] | 12.5 | 35.5 | > 25 | – | 5.9 | 16.8 | < 20 | 19.1 | 54.4 | 10.2 | – | IC50 ([5]; value in brackets): 29.1 µM
12 | COc1cc2c(cc1O)CC1c3c(cc(OC)c(OC)c3-2)CCN1C (single isomer, unassigned; (+)) [(+)-N-Methyllaurotetanine, (+)-N-methyllaurotetanine] | > 25 | – | > 25 | – | > 25 | – | – | > 25 | – | > 25 | > 25 | –
13 | COc1cc2c(cc1OC)CN1CCc3cc(OC)c(OC)cc3[C@@H]1C2 [(−)-Xylopinine, (−)-xylopinine] | > 25 | – | > 25 | – | > 25 | – | – | > 25 | – | > 25 | > 25 | –
14 | COc1cc2c(cc1O)C[C@@H]1NCCc3cc(OC)c(OC)c-2c31 [(+)-Laurotetanine, (+)-laurotetanine] | > 25 | – | > 25 | – | > 25 | – | – | > 25 | – | > 25 | > 25 | –
15 | c1ccc2c(c1)C[C@H]1NCCc3cc4c(c-2c31)OCO4 [(+)-Anonaine, (+)-anonaine] | 10.6 | 39.9 | 14 | 52.8 | 10.1 | 37.9 | < 20 | 18.8 | 70.7 | > 25 | – | –
16 | COc1cc2c(cc1OC)-c1c(OC)c(OC)cc3c1[C@H](C2)N(C)CC3 [(+)-Glaucine, (+)-glaucine] | > 25 | – | > 25 | – | > 25 | – | – | > 25 | – | > 25 | > 25 | –
